From BigSolDB 2.1

CC(=O)Oc1cc(C)c(OC(C)=O)c2ccccc12
solubility (mole fraction)
Settings | 283.1 K | 288.1 K | 293.1 K | 298.1 K | 303.1 K | 308.1 K | 313.1 K | 318.1 K | 323.1 K
in cyclohexanol | 0.00261 | 0.00403 | 0.00595 | 0.0082 | 0.0105 | 0.0138 | 0.0182 | 0.0245 | 0.033
in ethanol | 0.00323 | 0.00417 | 0.00532 | 0.00656 | 0.00839 | 0.0108 | 0.014 | 0.0184 | 0.0242
in ethyl acetate | 0.0691 | 0.0795 | 0.0907 | 0.103 | 0.118 | 0.135 | 0.156 | 0.179 | 0.204
in isobutanol | 0.00212 | 0.0029 | 0.00384 | 0.00526 | 0.00708 | 0.00958 | 0.0131 | 0.018 | 0.0249
in isopentanol | 0.00241 | 0.00329 | 0.00422 | 0.0056 | 0.00766 | 0.0102 | 0.0137 | 0.0183 | 0.025
in isopropanol | 0.00185 | 0.0025 | 0.00334 | 0.00444 | 0.00605 | 0.0081 | 0.011 | 0.0152 | 0.0209
in methanol | 0.00461 | 0.0057 | 0.0071 | 0.00877 | 0.0112 | 0.0139 | 0.0173 | 0.0221 | 0.032
in methyl acetate | 0.0839 | 0.096 | 0.109 | 0.123 | 0.14 | 0.159 | 0.178 | 0.198 | 0.22
in n-butanol | 0.00257 | 0.00352 | 0.00459 | 0.00595 | 0.00794 | 0.0104 | 0.0139 | 0.0185 | 0.0253
in n-butyl acetate | 0.0497 | 0.0573 | 0.0665 | 0.077 | 0.0897 | 0.105 | 0.122 | 0.142 | 0.165
in n-pentanol | 0.00266 | 0.00374 | 0.00498 | 0.00667 | 0.0092 | 0.0122 | 0.0164 | 0.0219 | 0.0288
in n-pentyl acetate | 0.0429 | 0.0501 | 0.0592 | 0.0681 | 0.0791 | 0.093 | 0.108 | 0.128 | 0.15
in n-propanol | 0.00265 | 0.00345 | 0.00473 | 0.00629 | 0.00799 | 0.0106 | 0.014 | 0.0186 | 0.0252
in n-propyl acetate | 0.0592 | 0.0673 | 0.0771 | 0.0895 | 0.104 | 0.12 | 0.138 | 0.159 | 0.183
